According to US5614519A, “(1-(2,3 or 4-N-morpholinoalkyl)-imidazol-4-yl)-benizimidazol-1-yl-methyl]-biphenyls useful as angiotensin-II antagonists” (Karl Thomae GmbH, priority 1991, dated 1997):

Test system: conscious renally hypertensive rats
Test: Effect after oral administration in conscious renally hypertensive rats
Format: in vivo, rat
Conditions: 10 mg/kg
Protocol: In addition, compounds D, E, F, G, H, M and O were tested on conscious renally hypertensive rats for their effect after oral administration using methods known from the literature.

| SMILES | hypotensive effect |
| --- | --- |
| CCCc1nc2c(C)cc(-c3cn4cccnc4n3)cc2n1Cc1ccc(-c2ccccc2-c2nnn[nH]2)cc1 [Substance O, 4'-[(2-n-propyl-4-methyl-6-(imidazo[1,2-a]pyrimidin-2-yl)-benzimidazol-1-yl)-methyl]-2-(1H-tetrazol-5-yl)-biphenyl] | hypotensive effect |
| CCCc1nc2c(C)cc(N3Cc4ccccc4C3=O)cc2n1Cc1ccc(-c2ccccc2-c2nnn[nH]2)cc1 [Substance F, 4'-[[2-n-propyl-4-methyl-6-(1-oxo-isoindolin-2-yl)-benzimidazol-1-yl]-methyl]-2-(1H-tetrazol-5-yl)-biphenyl] | hypotensive effect |
| Cc1cc(-c2nc3ccccc3n2C)cc2c1nc(C1CC1)n2Cc1ccc(-c2ccccc2C(=O)O)cc1 [Substance M, 4'-[(2-cyclopropyl-4-methyl-6-(1-methylbenzimidazol-2-yl)-benzimidazol-1-yl)-methyl]-biphenyl-2-carboxylic acid] | hypotensive effect |
| CCCc1nc2c(C)cc(N3CCCCS3(=O)=O)cc2n1Cc1ccc(-c2ccccc2-c2nn[nH]n2)cc1 [Substance G, 4'-[[2-n-propyl-4-methyl-6-(butanesultam-1-yl)-benzimidazol-1-yl]-methyl]-2-(1H-tetrazol-5-yl)-biphenyl] | hypotensive effect |
| CCCc1nc2c(C)cc(-c3nc4ccccc4n3C)cc2n1Cc1ccc(-c2ccccc2C(=O)O)cc1 [Substance D, 4'-[[2-n-propyl-4-methyl-6-(1-methylbenzimidazol-2-yl)-benzimidazol-1-yl]-methyl]-biphenyl-2-carboxylic acid] | hypotensive effect |
| CCCc1nc2c(C)cc(-c3nc4ccccc4n3C)cc2n1Cc1ccc(-c2ccccc2-c2nnn[nH]2)cc1 [Substance E, 4'-[[2-n-propyl-4-methyl-6-(1-methylbenzimidazol-2-yl)-benzimidazol-1-yl]-methyl]-2-(1H-tetrazol-5-yl)-biphenyl] | hypotensive effect |
| CCCCc1nc2c(C)cc(N3C(=O)C(C)=C(C)C3=O)cc2n1Cc1ccc(-c2ccccc2C(=O)O)cc1 [Substance H, 4'-[[2-n-butyl-6-(2,3-dimethylmaleic acid imino)-4-methyl-benzimidazol-1-yl]-methyl]-biphenyl-2-carboxylic acid semihydrate] | hypotensive effect |
